Measurements taken from patent US11214803B2, “Modulators of YAP1 expression” (Ionis Pharmaceuticals, Inc., priority 2019, dated 2022).
pIC50: −log10 of the molar value. Strand notation (5' to 3'): a small letter for the sugar, then the base; units joined by * are phosphorothioate-linked, units joined directly phosphodiester-linked; [ ] holds rarer units or linkages, { } end groups; capitals alone tell only the bases. k = constrained ethyl (cEt); [5mC] = 5-methylcytosine; d = 2'-deoxy (DNA)

Columns and labels:
[1] = Tolerability in Balb/c mice, plasma chemistry markers (Example 14); type: in vivo; settings: male Balb/c mice, 50 mg/kg s.c. twice a week for four weeks (8 treatments), day 27
Protocol: (§1) Balb/c mice were treated with modified oligonucleotides selected from studies described above and evaluated for changes in the levels of various plasma chemistry markers.
(§2) Groups of male Balb/c mice at 5-6 weeks of age (obtained from Taconic) were injected subcutaneously twice a week for four weeks (for a total of 8 treatments) with 50 mg/kg of modified oligonucleotides. One group of male Balb/c mice was injected with PBS. Mice were euthanized on day 27 post start of treatment (24 hours following the final administration).

[2] = Tolerability in Balb/c mice, body and organ weights (Example 14); type: in vivo; settings: male Balb/c mice, 50 mg/kg s.c. twice a week for four weeks (8 treatments); for Kidney weight / Liver weight / Spleen weight: end of study (day 27); for body weight: measured on day 25
Protocol: Groups of male Balb/c mice at 5-6 weeks of age (obtained from Taconic) were injected subcutaneously twice a week for four weeks (for a total of 8 treatments) with 50 mg/kg of modified oligonucleotides. One group of male Balb/c mice was injected with PBS. […]
Modified oligonucleotides that caused any changes in organ weights outside the expected range for modified oligonucleotides were excluded from further studies.

Yap1 mRNA = experiment: Dose-dependent inhibition of human Yap1 in A-431 cells (Example 7, 10,000 cells per well, RTS36584); type: cell-based; settings: free uptake; for Yap1 mRNA, % UTC: A-431 cells 10,000 cells per well, 48 hours
In short: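 A-431 cells at 10,000 per well received modified oligonucleotides by free uptake at several doses. After about 48 hours, Yap1 mRNA was quantified with primer-probe set RTS36584, normalized to RIBOGREEN total RNA and expressed as % untreated control. IC50 came from linear regression on a log/linear plot.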

[3] = Tolerability in Balb/c mice, body and organ weights (Example 10); type: in vivo; settings: 50 mg/kg subcutaneously twice a week for four weeks, end of study
Protocol: as §2, with “4-6” for “5-6”, “26” for “27”
Body weights of Balb/c mice were measured at the end of the study, and the average body weight for each group is presented in the table below. Modified oligonucleotides that caused any changes in organ weights outside the expected range for modified oligonucleotides were excluded from further studies.

[4] = Tolerability in Balb/c mice, plasma chemistry markers (Example 10); type: in vivo; settings: male Balb/c mice, 50 mg/kg subcutaneously twice a week for four weeks, day 26
Protocol: as §1
as §2, with “4-6” for “5-6”, “26” for “27”

[5] = test system: subcutaneous DEN carcinomas; experiment: Tumor volume in DEN-HCC model, in combination with a-PD1 antibody (Example 49); type: in vivo, C57BL/6 mice; settings: DEN-HCC subcutaneous model, C57BL/6 mice
Protocol: N-nitrosodiethylamine (DEN) is administered at 25 mg/kg into 15 day old C57/BL6 mice. Carcinomas form 6 months post injection. After formation, carcinomas were then dissected from the liver and passaged subcutaneously into C57BL/6 male mice at 4-6 weeks of age to establish a subcutaneous model. For this experiment, mice were passaged with P8 subcutaneously established DEN carcinomas, rendering P9 for the duration of the experiment. Subcutaneous carcinomas are found to form at 4-6 weeks post implantation. Modified oligonucleotides 792169 (control compound) and 715491 (YAP-1 targeting modified oligonucleotide) were treated subcutaneously into groups of 7-8 mice at 10 mg/kg/week 5 times a week for 11 weeks (total of 55 doses). The PBS-only treated group and the control group were treated 5 times a week for 4 weeks (total of 20 doses). α-PD1 antibody (BioXCell) was treated intraperitoneally at 10 mg/kg/week twice a week for 4 weeks (total of 8 doses). F.D. refers to mice that were sacrificed because their tumor volume became too large.

[6] = Table 61, A-431 cells 10,000 cells per well
[7] = Table 56, A-431 cells 10,000 cells per well
[8] = Table 58, A-431 cells 10,000 cells per well

958739 (kA*kG*k[5mC]*dA*dA*dT*dA*dG*dA*dG*dT*dA*dA*k[5mC]*k[5mC]*kA; antisense) [compound 958739]
ALT [1]: 145 U/L
AST [1]: 186 U/L
BUN [1]: 21 mg/dL
TBIL [1]: 0.21 mg/dL
Kidney weight [2]: 0.36 g
Liver weight [2]: 1.58 g
Spleen weight [2]: 0.13 g
body weight [2]: 24 g
Yap1 mRNA, % UTC (Yap1 mRNA; Table 61, 15.6 nM): 77 % UTC
Yap1 mRNA, % UTC (Yap1 mRNA; Table 61, 62.5 nM): 46 % UTC
Yap1 mRNA, % UTC (Yap1 mRNA; Table 61, 4000.00 nM): 7 % UTC
pIC50 (Yap1 mRNA; [6]): 7.00

715491 (kA*kA*k[5mC]*d[5mC]*dA*dA*d[5mC]*dT*dA*dT*dT*dA*d[5mC]*kT*kT*k[5mC]) [compound 715491]
Kidney weight [3]: 0.32 g
Liver weight [3]: 1.03 g
Spleen weight [3]: 0.12 g
body weight [3]: 22 g
ALT (U/L) [4]: 33 U/L
AST (U/L) [4]: 48 U/L
TBIL [4]: 0.11 mg/dL
Yap1 mRNA, % UTC (Yap1 mRNA; Table 56, 15.6 nM): 92 % UTC
Yap1 mRNA, % UTC (Yap1 mRNA; Table 56, 62.5 nM): 83 % UTC
Yap1 mRNA, % UTC (Yap1 mRNA; Table 56, 4000.00 nM): 28 % UTC
pIC50 (Yap1 mRNA; [7]): 6.57
Average Tumor Volume ([5]; day 1 on treatment): 356 mm3
Average Tumor Volume ([5]; day 5 on treatment): 417 mm3
Average Tumor Volume ([5]; day 8 on treatment): 463 mm3
Average Tumor Volume ([5]; day 11 on treatment): 461 mm3
Average Tumor Volume ([5]; day 15 on treatment): 523 mm3
Average Tumor Volume ([5]; day 18 on treatment): 526 mm3
Average Tumor Volume ([5]; day 23 on treatment): 658 mm3
Average Tumor Volume ([5]; day 25 on treatment): 659 mm3
Average Tumor Volume ([5]; day 28 on treatment): 661 mm3
Average Tumor Volume ([5]; day 31 on treatment): 740 mm3
Average Tumor Volume ([5]; day 35 on treatment): 798 mm3
Average Tumor Volume ([5]; day 38 on treatment): 741 mm3
Average Tumor Volume ([5]; day 43 on treatment): 723 mm3
Average Tumor Volume ([5]; day 45 on treatment): 741 mm3
Average Tumor Volume ([5]; day 49 on treatment): 765 mm3
Average Tumor Volume ([5]; day 54 on treatment): 780 mm3
Average Tumor Volume ([5]; day 58 on treatment): 852 mm3
Average Tumor Volume ([5]; day 61 on treatment): 925 mm3
Average Tumor Volume ([5]; day 65 on treatment): 896 mm3
Average Tumor Volume ([5]; day 68 on treatment): 940 mm3
Average Tumor Volume ([5]; day 72 on treatment): 953 mm3
Average Tumor Volume ([5]; day 75 on treatment): 985 mm3
Average Tumor Volume ([5]; day 79 on treatment): 960 mm3

958534 (kT*kT*k[5mC]*dA*dG*d[5mC]*dA*dT*dA*dG*dA*dA*dG*kT*kA*kG; antisense) [compound 958534]
ALT [1]: 1962 U/L
AST [1]: 1617 U/L
BUN [1]: 26 mg/dL
TBIL [1]: 0.33 mg/dL
Kidney weight [2]: 0.32 g
Liver weight [2]: 1.81 g
Spleen weight [2]: 0.09 g
body weight [2]: 22 g
Yap1 mRNA, % UTC (Yap1 mRNA; Table 61, 15.6 nM): 85 % UTC
Yap1 mRNA, % UTC (Yap1 mRNA; Table 61, 62.5 nM): 48 % UTC
Yap1 mRNA, % UTC (Yap1 mRNA; Table 61, 4000.00 nM): 9 % UTC
pIC50 (Yap1 mRNA; [6]): 7.00

958622 (kG*kA*kT*dA*dT*dT*d[5mC]*d[5mC]*dG*d[5mC]*dA*dT*dT*kG*k[5mC]*k[5mC]; antisense) [compound 958622]
ALT [1]: 224 U/L
AST [1]: 254 U/L
BUN [1]: 23 mg/dL
TBIL [1]: 0.24 mg/dL
Kidney weight [2]: 0.33 g
Liver weight [2]: 0.92 g
Spleen weight [2]: 0.12 g
body weight [2]: 23 g
Yap1 mRNA, % UTC (Yap1 mRNA; Table 58, 15.6 nM): 79 % UTC
Yap1 mRNA, % UTC (Yap1 mRNA; Table 58, 62.5 nM): 50 % UTC
Yap1 mRNA, % UTC (Yap1 mRNA; Table 58, 4000.00 nM): 7 % UTC
pIC50 (Yap1 mRNA; [8]): 7.00

958497 (kA*kT*kA*dT*dG*dG*dA*dA*dA*dT*dT*dG*dT*k[5mC]*kT*k[5mC]) [compound 958497]
ALT [1]: 46 U/L
AST [1]: 151 U/L
BUN [1]: 26 mg/dL
TBIL [1]: 0.24 mg/dL
Kidney weight [2]: 0.35 g
Liver weight [2]: 1.31 g
Spleen weight [2]: 0.11 g
body weight [2]: 23 g
Yap1 mRNA, % UTC (Yap1 mRNA; Table 58, 15.6 nM): 82 % UTC
Yap1 mRNA, % UTC (Yap1 mRNA; Table 58, 62.5 nM): 35 % UTC
Yap1 mRNA, % UTC (Yap1 mRNA; Table 58, 4000.00 nM): 3 % UTC
pIC50 (Yap1 mRNA; [8]): 7.00

958596 (kA*kG*k[5mC]*dA*dG*dT*dT*dA*dA*dG*d[5mC]*dA*d[5mC]*kT*kT*kT; antisense) [compound 958596]
ALT [1]: 207 U/L
AST [1]: 162 U/L
BUN [1]: 24 mg/dL
TBIL [1]: 0.23 mg/dL
Kidney weight [2]: 0.36 g
Liver weight [2]: 2.11 g
Spleen weight [2]: 0.13 g
body weight [2]: 25 g
Yap1 mRNA, % UTC (Yap1 mRNA; Table 56, 15.6 nM): 69 % UTC
Yap1 mRNA, % UTC (Yap1 mRNA; Table 56, 62.5 nM): 38 % UTC
Yap1 mRNA, % UTC (Yap1 mRNA; Table 56, 4000.00 nM): 7 % UTC
pIC50 (Yap1 mRNA; [7]): 7.40

958589 (kG*kT*kA*dA*dA*dG*dG*dA*dA*dG*dA*dT*d[5mC]*kT*k[5mC]*k[5mC]; antisense) [compound 958589]
ALT [1]: 35 U/L
AST [1]: 66 U/L
BUN [1]: 24 mg/dL
TBIL [1]: 0.21 mg/dL
Kidney weight [2]: 0.37 g
Liver weight [2]: 1.40 g
Spleen weight [2]: 0.10 g
body weight [2]: 25 g
Yap1 mRNA, % UTC (Yap1 mRNA; Table 61, 15.6 nM): 75 % UTC
Yap1 mRNA, % UTC (Yap1 mRNA; Table 61, 62.5 nM): 50 % UTC
Yap1 mRNA, % UTC (Yap1 mRNA; Table 61, 4000.00 nM): 8 % UTC
pIC50 (Yap1 mRNA; [6]): 7.00
